Patent EP0745595A1, “3-(3-Aryloxyphenyl)-1-(substituted methyl)-s-triazine-2,4,6-oxo or thiotrione herbicidal agents” (American Cyanamid Company, priority 1995, dated 1996)

Key:
Type in all cases: in vivo
[1] = system: ORYZA SATIVA, L. TEBONNET; assay: Preemergence herbicidal evaluation, ORYSAT (Rice, Tebonnet); conditions: for ORYSAT herbicidal rating: rated four to five weeks after treatment
In short: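 Seeds of rice (Oryza sativa, Tebonnet) were mixed with potting soil and sown on about one inch of soil in pint cups, then treated preemergence. Cups sat on greenhouse benches, watered and tended by standard greenhouse practice. Four to five weeks after treatment, plants were visually scored on a 0-9 scale relative to a control.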

[2] = system: TRITICUM AESTIVUM, CV. APOLLO; assay: Preemergence herbicidal evaluation, TRZAWO (Wheat, Winter, CV. APOLLO); conditions: for TRZAWO herbicidal rating: rated four to five weeks after treatment
In short: (§1)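 Injury scored visually (0–9; stand, vigor, malformation, size, chlorosis) versus untreated control, four to five weeks post-treatment. Application: aqueous acetone spray onto freshly planted soil cups, equivalent to about 0.125 to 0.50 kg/ha, plants then kept under standard greenhouse care.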

[3] = system: ABUTILON THEOPHRASTI, MEDIC.; assay: Preemergence herbicidal evaluation, ABUTH (Velvetleaf); conditions: for ABUTH herbicidal rating: rated four to five weeks after treatment
In short: as §1

[4] = system: SETARIA VIRIDIS, (L) BEAU; assay: Preemergence herbicidal evaluation, SETVI (Foxtail, Green); conditions: for SETVI herbicidal rating: rated four to five weeks after treatment
In short: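 Seeds of green foxtail (Setaria viridis) were mixed with potting soil and sown on top of roughly one inch of soil in pint cups for a preemergence herbicide test. Treated cups were kept on greenhouse benches, watered, and cared for conventionally. Four to five weeks after treatment, plants were rated visually on a 0-9 scale against a control.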

[5] = system: AMBROSIA ARTEMISIIFOLIA, L.; assay: Preemergence herbicidal evaluation, AMBEL (Ragweed, Common); conditions: for AMBEL herbicidal rating: rated four to five weeks after treatment
In short: as §1

[6] = system: ECHINOCHLOA CRUS-GALLI, (L) BEAU; assay: Preemergence herbicidal evaluation, ECHCG (Barnyardgrass); conditions: for ECHCG herbicidal rating: rated four to five weeks after treatment
In short: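 Barnyardgrass seeds were mixed with potting soil and planted on about one inch of soil in pint cups for preemergence testing. Treated cups were kept on greenhouse benches, watered and maintained by standard greenhouse practice. After four to five weeks, each cup was visually rated on a 0-9 scale against an untreated control.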

IPOMOEA SPP. = assay: Preemergence herbicidal evaluation, IPOSS (Morningglory spp.); conditions: for IPOSS herbicidal rating: rated four to five weeks after treatment
In short: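 Seeds of morningglory (Ipomoea spp.) were mixed with potting soil and sown on roughly one inch of soil in pint cups for a preemergence herbicide test. The cups were put on greenhouse benches, watered, and maintained by standard greenhouse practice. Four to five weeks after treatment each cup was scored visually on a 0-9 scale against a control.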

## COC(=O)Cn1c(=O)n(C)c(=O)n(-c2cc(Oc3cc(Cl)cc(Cl)c3)ccc2[N+](=O)[O-])c1=O [Compound 35, Methyl 3-[5-(3,5-dichlorophenoxy)-2-nitrophenyl]tetrahydro-5-methyl-2,4,6-trioxo-s-triazine-1(2H)-acetate]
[1]; Rate 0.500 kg/ha
  ORYSAT herbicidal rating: 0.0
[2]; Rate 0.500 kg/ha
  TRZAWO herbicidal rating: 0.0
[3]; Rate 0.500 kg/ha
  ABUTH herbicidal rating: 0.0
[4]; Rate 0.500 kg/ha
  SETVI herbicidal rating: 0.0
[5]; Rate 0.500 kg/ha
  AMBEL herbicidal rating: 0.0
[6]; Rate 0.500 kg/ha
  ECHCG herbicidal rating: 0.0
IPOMOEA SPP.; Rate 0.500 kg/ha
  IPOSS herbicidal rating: 0.0

## COC(=O)Cn1c(=O)n(C)c(=O)n(-c2cc(Oc3ccccn3)ccc2[N+](=O)[O-])c1=O [Compound 38, Methyl tetrahydro-3-methyl-5-[2-nitro-5-(2-pyridyloxy)phenyl]-2,4,6-trioxo-s-triazine-1(2H)-acetate]
[1]; Rate 0.500 kg/ha
  ORYSAT herbicidal rating: 3.0
[2]; Rate 0.500 kg/ha
  TRZAWO herbicidal rating: 1.0
[3]; Rate 0.500 kg/ha
  ABUTH herbicidal rating: 0.0
[4]; Rate 0.500 kg/ha
  SETVI herbicidal rating: 0.0
[5]; Rate 0.500 kg/ha
  AMBEL herbicidal rating: 0.0
[6]; Rate 0.500 kg/ha
  ECHCG herbicidal rating: 0.0
IPOMOEA SPP.; Rate 0.500 kg/ha
  IPOSS herbicidal rating: 0.0

## Methyl 3-{2-[(2-chloro-α,α,α,-trifluoro-p-tolyl)oxy]phenyl}tetrahydro-5-methyl-2,4,6-trioxo-s-triazine-1(2H)-acetate [Compound 28]
[1]; Rate 0.125 kg/ha
  ORYSAT: 1.0
  ORYSAT herbicidal rating: 1.0
[1]; Rate 0.250 kg/ha
  ORYSAT: 2.0
  ORYSAT herbicidal rating: 2.0
[1]; Rate 0.500 kg/ha
  ORYSAT: 4.0
  ORYSAT herbicidal rating: 4.0
[1]; Rate 1.000 kg/ha
  ORYSAT: 4.0
[2]; Rate 0.125 kg/ha
  TRZAWO: 0.0
  TRZAWO herbicidal rating: 0.0
[2]; Rate 0.250 kg/ha
  TRZAWO: 0.0
  TRZAWO herbicidal rating: 0.0
[2]; Rate 0.500 kg/ha
  TRZAWO: 1.0
  TRZAWO herbicidal rating: 1.0
[2]; Rate 1.000 kg/ha
  TRZAWO: 1.0
[3]; Rate 0.125 kg/ha
  ABUTH: 0.0
  ABUTH herbicidal rating: 0.0
[3]; Rate 0.250 kg/ha
  ABUTH: 3.0
  ABUTH herbicidal rating: 3.0
[3]; Rate 0.500 kg/ha
  ABUTH: 4.0
  ABUTH herbicidal rating: 4.0
[3]; Rate 1.000 kg/ha
  ABUTH: 7.0
[4]; Rate 0.125 kg/ha
  SETVI: 0.0
  SETVI herbicidal rating: 0.0
[4]; Rate 0.250 kg/ha
  SETVI: 2.0
  SETVI herbicidal rating: 2.0
[4]; Rate 0.500 kg/ha
  SETVI: 3.0
  SETVI herbicidal rating: 3.0
[4]; Rate 1.000 kg/ha
  SETVI: 6.0
[5]; Rate 0.125 kg/ha
  AMBEL: 5.0
  AMBEL herbicidal rating: 5.0
[5]; Rate 0.250 kg/ha
  AMBEL: 5.0
  AMBEL herbicidal rating: 5.0
[5]; Rate 0.500 kg/ha
  AMBEL: 7.0
  AMBEL herbicidal rating: 7.0
[5]; Rate 1.000 kg/ha
  AMBEL: 5.0
[6]; Rate 0.125 kg/ha
  ECHCG: 0.0
  ECHCG herbicidal rating: 0.0
[6]; Rate 0.250 kg/ha
  ECHCG: 2.0
  ECHCG herbicidal rating: 2.0
[6]; Rate 0.500 kg/ha
  ECHCG: 3.0
  ECHCG herbicidal rating: 3.0
[6]; Rate 1.000 kg/ha
  ECHCG: 6.0
IPOMOEA SPP.; Rate 0.125 kg/ha
  IPOSS: 2.0
  IPOSS herbicidal rating: 2.0
IPOMOEA SPP.; Rate 0.250 kg/ha
  IPOSS: 3.0
  IPOSS herbicidal rating: 3.0
IPOMOEA SPP.; Rate 0.500 kg/ha
  IPOSS: 6.0
  IPOSS herbicidal rating: 6.0
IPOMOEA SPP.; Rate 1.000 kg/ha
  IPOSS: 7.0
